Data published in the supplement of paper PMC11208160.

Test: recombinant UMI read abundance after kanamycin selection (control-corrected) (log10(CPM+1)); higher = more efficient recombination; extreme values may be limits of the assay; sequences stand for … in AGTGCAGAGAAAATCGGCCAGTTTTCTCTGCCTGCAGTCCGCATGCCGTGGGACCCCTTGGGTTCTAACCTGTTGCCTAGATTTATGCAGCGGACTGCCTTTCTCCCAAAGTGATAAACCGG…AGGTTGGTTTCACT; site = the 11-nt donor
Outline: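 Pooled Escherichia coli screen of donor and donor-binding-loop pairs for the IS621 bridge recombinase. Each pair sits with a 12-nt UMI on a plasmid carrying a promoterless kanamycin gene. The library was co-electroporated with a target plasmid encoding a fixed target and T7-inducible recombinase, then plated with IPTG (0.07 mM) plus kanamycin, or unselected, each in two replicates. Recombinant UMIs were PCR-amplified across the donor–target junction and sequenced. Counts became CPM, averaged over replicates, scaled by control-derived factors and reported as log10(CPM+1).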
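Also: IS621 bridge recombinase in Escherichia coli cells against a fixed T5 target plasmid.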

“TGTTCCCCATGGACCGGTTTTCCCGGTAATCCGTATTTGTT (site TGTTCCCCTGA)” and “TGTTCCCCATGGACCGGTTTTCCCGGTAATCCGTATTTGTT (site TGTTCCCCTTA)” are within 0.2 log units of each other in “recombinant UMI read abundance (log10)” value: 0 for the first, 0.0133 for the second.

“TGTTCCGCATGGACCGGTTTTCCCGGTAATCCGTATTTGTA (site TGTTCCACTTA)” and “TGTTCCGCATGGACCGGTTTTCCCGGTAATCCGTATTTGTA (site TGTTCCCCTTA)” are within 0.2 log units of each other in “recombinant UMI read abundance (log10)” value: 0.00713 for the first, 0.0203 for the second.

“TGTTCCGCATGGACCGGTTTTCCCGGTAATCCGTATTTGTA (site TGTTCCGCTTA)” and “TGTTCCGCATGGACCGGTTTTCCCGGTAATCCGTATTTGTA (site TGTTCCTCTTA)” are within 0.2 log units of each other in “recombinant UMI read abundance (log10)” value: 0.0982 for the first, 0 for the second.

“TGTTCTCCATGGACCGGTTTTCCCGGTAATCCGTATTTGTA (site TGTTCACCTTA)” and “TGTTCTCCATGGACCGGTTTTCCCGGTAATCCGTATTTGTA (site TGTTCCCCTTA)” are within 0.2 log units of each other in “recombinant UMI read abundance (log10)” value: 0.0104 for the first, 0.00777 for the second.

First: TGTTCTCCATGGACCGGTTTTCCCGGTAATCCGTATTTGTA (site TGTTCGCCTTA)
Second: TGTTCTCCATGGACCGGTTTTCCCGGTAATCCGTATTTGTA (site TGTTCTCCTTA)
The “recombinant UMI read abundance (log10)” value of the first is lower: 0.0191 for the first, 0.679 for the second.

First: TGTTGGACATGGACCGGTTTTCCCGGTAATCCGTATTTGTG (site TGTTGGACTCA)
Second: TGTTGTGCATGGACCGGTTTTCCCGGTAATCCGTATTTGCG (site TGTTGTGCTCG)
The “recombinant UMI read abundance (log10)” value of the first is lower: 0.117 for the first, 0.684 for the second.

Compared with “TTAAGAGCATGGACCGGTTTTCCCGGTAATCCGTATTTGCA (site TTAAGAGCTTG)”, “TTAAGGCCATGGACCGGTTTTCCCGGTAATCCGTATTTGAC (site ATAAGGCCTGT)” is lower in “recombinant UMI read abundance (log10)” value: 2.63 for the first, 0 for the second.

“TTAAGGCCATGGACCGGTTTTCCCGGTAATCCGTATTTGAC (site CTAAGGCCTGT)” and “TTAAGGCCATGGACCGGTTTTCCCGGTAATCCGTATTTGAC (site GTAAGGCCTGT)” are the same in “recombinant UMI read abundance (log10)” value: 0 for the first, 0 for the second.

“TTAAGGCCATGGACCGGTTTTCCCGGTAATCCGTATTTGAC (site TTAAGGCCTGT)” and “TTAAGTCCATGGACCGGTTTTCCCGGTAATCCGTATTTGTA (site TAAAGTCCTTA)” are within 0.2 log units of each other in “recombinant UMI read abundance (log10)” value: 0 for the first, 0.00903 for the second.

Compared with “TTAAGTCCATGGACCGGTTTTCCCGGTAATCCGTATTTGTA (site TCAAGTCCTTA)”, “TTAAGTCCATGGACCGGTTTTCCCGGTAATCCGTATTTGTA (site TGAAGTCCTTA)” is lower in “recombinant UMI read abundance (log10)” value: 0.361 for the first, 0.0153 for the second.

Going from “TTAAGTCCATGGACCGGTTTTCCCGGTAATCCGTATTTGTA (site TTAAGTCCTTA)” to “TTAATAGCATGGACCGGTTTTCCCGGTAATCCGTATTTGAT (site TTAATAGCTAT)”, the “recombinant UMI read abundance (log10)” value rises from 1.44 to 1.76.

Going from “TTAATTCCATGGACCGGTTTTCCCGGTAATCCGTATTTGTG (site TTAATTCCTCA)” to “TTACAACCATGGACCGGTTTTCCCGGTAATCCGTATTTGCA (site TTACAACCTTG)”, the “recombinant UMI read abundance (log10)” value falls from 0.4 to 0.

Compared with “TTACACTCATGGACCGGTTTTCCCGGTAATCCGTATTTGAT (site TTACACTCTAT)”, “TTACAGACATGGACCGGTTTTCCCGGTAATCCGTATTTGAG (site TTACAGACTCT)” is lower in “recombinant UMI read abundance (log10)” value: 2.95 for the first, 1.21 for the second.

First: TTACGAACATGGACCGGTTTTCCCGGTAATCCGTATTTGAC (site TTACGAACTGT)
Second: TTACTAACATGGACCGGTTTTCCCGGTAATCCGTATTTGGA (site ATACTAACTTC)
The “recombinant UMI read abundance (log10)” value of the first is higher: 2.28 for the first, 0.0425 for the second.

“TTACTAACATGGACCGGTTTTCCCGGTAATCCGTATTTGGA (site CTACTAACTTC)” and “TTACTAACATGGACCGGTTTTCCCGGTAATCCGTATTTGGA (site GTACTAACTTC)” are within 0.2 log units of each other in “recombinant UMI read abundance (log10)” value: 0.457 for the first, 0.288 for the second.

Compared with “TTACTAACATGGACCGGTTTTCCCGGTAATCCGTATTTGGA (site TTACTAACTTC)”, “TTAGAATCATGGACCGGTTTTCCCGGTAATCCGTATTTGAC (site CTAGTATCTGT)” is lower in “recombinant UMI read abundance (log10)” value: 0.363 for the first, 0 for the second.

First: TTAGAATCATGGACCGGTTTTCCCGGTAATCCGTATTTGAC (site TTAGAATCTGT)
Second: TTAGCTACATGGACCGGTTTTCCCGGTAATCCGTATTTGTG (site TTAGCTACTCA)
The “recombinant UMI read abundance (log10)” value of the first is higher: 1.48 for the first, 0.319 for the second.

“TTAGCTACATGGACCGGTTTTCCCGGTAATCCGTATTTGTG (site TTAGCTCCTCA)” and “TTAGCTACATGGACCGGTTTTCCCGGTAATCCGTATTTGTG (site TTAGCTGCTCA)” are within 0.2 log units of each other in “recombinant UMI read abundance (log10)” value: 0.00713 for the first, 0.0109 for the second.

“TTAGCTACATGGACCGGTTTTCCCGGTAATCCGTATTTGTG (site TTAGCTTCTCA)” and “TTAGCTGCATGGACCGGTTTTCCCGGTAATCCGTATTTGTC (site TTAGCTGCTAA)” are within 0.2 log units of each other in “recombinant UMI read abundance (log10)” value: 0.0149 for the first, 0.00712 for the second.

First: TTAGCTGCATGGACCGGTTTTCCCGGTAATCCGTATTTGTC (site TTAGCTGCTCA)
Second: TTAGCTGCATGGACCGGTTTTCCCGGTAATCCGTATTTGTC (site TTAGCTGCTGA)
The “recombinant UMI read abundance (log10)” value of the first is lower: 0.00796 for the first, 2.26 for the second.

Going from “TTAGCTGCATGGACCGGTTTTCCCGGTAATCCGTATTTGTC (site TTAGCTGCTTA)” to “TTAGTATCATGGACCGGTTTTCCCGGTAATCCGTATTTGAC (site ATAGTATCTGT)”, the “recombinant UMI read abundance (log10)” value rises from 0.15 to 2.12.

First: TTAGTATCATGGACCGGTTTTCCCGGTAATCCGTATTTGAC (site CTAGTATCTGT)
Second: TTAGTATCATGGACCGGTTTTCCCGGTAATCCGTATTTGAC (site GTAGTATCTGT)
The “recombinant UMI read abundance (log10)” value of the first is higher: 2.18 for the first, 0.348 for the second.

First: TTAGTATCATGGACCGGTTTTCCCGGTAATCCGTATTTGAC (site TTAGTATCTGT)
Second: TTAGTCACATGGACCGGTTTTCCCGGTAATCCGTATTTGGG (site TTAGTCACTCC)
The “recombinant UMI read abundance (log10)” value of the first is higher: 2.84 for the first, 0.0104 for the second.

“TTAGTCGCATGGACCGGTTTTCCCGGTAATCCGTATTTGCG (site ATAGTCGCTCG)” and “TTAGTCGCATGGACCGGTTTTCCCGGTAATCCGTATTTGCG (site CTAGTCGCTCG)” are within 0.2 log units of each other in “recombinant UMI read abundance (log10)” value: 0.0346 for the first, 0.00978 for the second.

Going from “TTAGTCGCATGGACCGGTTTTCCCGGTAATCCGTATTTGCG (site GTAGTCGCTCG)” to “TTAGTCGCATGGACCGGTTTTCCCGGTAATCCGTATTTGCG (site TTAGTCGCTCG)”, the “recombinant UMI read abundance (log10)” value rises from 0.00638 to 0.224.

Going from “TTAGTTACATGGACCGGTTTTCCCGGTAATCCGTATTTGGC (site TTAGTTACTGC)” to “TTATCATCATGGACCGGTTTTCCCGGTAATCCGTATTTGCA (site TTATCATCTTG)”, the “recombinant UMI read abundance (log10)” value rises from 0.857 to 1.53.

First: TTATCGTCATGGACCGGTTTTCCCGGTAATCCGTATTTGGC (site TTATCGTCTGC)
Second: TTATCTGCATGGACCGGTTTTCCCGGTAATCCGTATTTGAT (site TTATCTGCTAT)
The “recombinant UMI read abundance (log10)” value of the first is higher: 1.36 for the first, 0.557 for the second.

Compared with “TTATGCACATGGACCGGTTTTCCCGGTAATCCGTATTTGTA (site ATATGCACTTA)”, “TTATGCACATGGACCGGTTTTCCCGGTAATCCGTATTTGTA (site CTATGCACTTA)” is higher in “recombinant UMI read abundance (log10)” value: 0.0128 for the first, 0.34 for the second.

In the case of “TTATGCACATGGACCGGTTTTCCCGGTAATCCGTATTTGTA (site GTATGCACTTA)”, the “recombinant UMI read abundance (log10)” value is reported as 0.0305.
